Data on ten molecules can be found in patent publication US12209154B2, “Polymer material” (MENICON CO., LTD., priority 2019, dated 2025).

The data set is described as follows: Solubility of compatibilizing monomer in water at 25° C. The data set is classed as physicochemical.
The molecule `C=C(C)C(=O)OCC(O)COC(=O)C12CC3CC(CC(C3)C1)C2` (stereo not shown) [AdaCO(OH)MA] had a solubility of less than 10000 µg/mL.
The result for `C=C(C)C(=O)OCC(O)CC(F)(F)C(F)(F)C(F)(F)C(F)(F)F` (stereo not shown) [C4F9CH2CH(OH)CHMA] reads less than 10000 µg/mL; that for `C=C(C)C(=O)OCC(O)COC(=O)C1CCCCC1` (stereo not shown) [CyCO(OH)MA], less than 10000 µg/mL; that for `C=C(C)C(=O)OC12CC3CC(O)(CC(O)(C3)C1)C2` [DHADM], less than 10000 µg/mL.
`C=C(C)C(=O)OCC(O)COCC(CC)CCCC` (stereo not shown) [EH(OH)MA] came in with a solubility of less than 10000 µg/mL.
Then `C=CC(=O)OC12CC3CC(CC(O)(C3)C1)C2` [HADA], with less than 10000 µg/mL.
`C=C(C)C(=O)OCC(O)COC(=O)C(O)CCCCCC` (stereo not shown) [MA(OH)OCO(OH)Hp] gave a solubility of less than 10000 µg/mL.
The result for `C=C(C)C(=O)OCC(O)COC(C)C` (stereo not shown) [iPr(OH)MA] reads less than 10000 µg/mL.
Then `C=C(C)C(=O)OCC(O)COC(C)(C)C` (stereo not shown) [tBu(OH)MA], with less than 10000 µg/mL; and `C=C(C)C(=O)OCC(O)COC(=O)C(C)(C)C` (stereo not shown) [tBuCO(OH)MA], with less than 10000 µg/mL.
